# From ChEMBL document CHEMBL1201862, “PubChem BioAssay data set” (2004)
#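 Tested at 5 concentrations; 48 h exposure; 96-well plates; endpoints linearly interpolated, else capped at highest concentration. GI50 = concentration required for 50% inhibition of growth.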 Activity calls are given as the source filed them. Rule as the data show it: active = GI50 up to about 1.1 µM and inactive = higher.
# Assays:
# Assay in all cases: growth of human tumour cells (NCI), 48 h
# 786-0 = tested on: 786-0
# A498 = tested on: A498
# A549 = tested on: A549
# ACHN = tested on: ACHN
# CAKI-1 = tested on: CAKI-1
# CCRF-CEM = tested on: CCRF-CEM
# COLO 205 = tested on: COLO 205
# DLD-1 = tested on: DLD-1
# DMS-114 = tested on: DMS-114
# DMS-273 = tested on: DMS-273
# EKVX = tested on: EKVX
# HCC 2998 = tested on: HCC 2998
# HCT-116 = tested on: HCT-116
# HCT-15 = tested on: HCT-15
# HL-60 = tested on: HL-60
# HOP-18 = tested on: HOP-18
# HOP-62 = tested on: HOP-62
# HOP-92 = tested on: HOP-92
# HT-29 = tested on: HT-29
# IGROV-1 = tested on: IGROV-1
# K562 = tested on: K562
# KM-20L2 = tested on: KM-20L2
# KM12 = tested on: KM12
# LOX IMVI = tested on: LOX IMVI
# LXFL 529 = tested on: LXFL 529
# M14 = tested on: M14
# M19-MEL = tested on: M19-MEL
# MOLT-4 = tested on: MOLT-4
# Malme-3M = tested on: Malme-3M
# NCI-H226 = tested on: NCI-H226
# NCI-H23 = tested on: NCI-H23
# NCI-H460 = tested on: NCI-H460
# NCI-H522 = tested on: NCI-H522
# OVCAR-3 = tested on: OVCAR-3
# OVCAR-4 = tested on: OVCAR-4
# OVCAR-5 = tested on: OVCAR-5
# OVCAR-8 = tested on: OVCAR-8
# RPMI-8226 = tested on: RPMI-8226
# RXF 393 = tested on: RXF 393
# RXF 631 = tested on: RXF 631
# SF-268 = tested on: SF-268
# SF-295 = tested on: SF-295
# SF-539 = tested on: SF-539
# SK-MEL-28 = tested on: SK-MEL-28
# SK-MEL-2 = tested on: SK-MEL-2
# SK-MEL-5 = tested on: SK-MEL-5
# SK-OV-3 = tested on: SK-OV-3
# SN12C = tested on: SN12C
# SNB-19 = tested on: SNB-19
# SNB-75 = tested on: SNB-75
# SNB-78 = tested on: SNB-78
# SR = tested on: SR
# SW-620 = tested on: SW-620
# TK-10 = tested on: TK-10
# U-251 = tested on: U-251
# UACC-257 = tested on: UACC-257
# UACC-62 = tested on: UACC-62
# UO-31 = tested on: UO-31
# XF498 = tested on: XF498
smiles,measurement,setting,value
O=C(NCCCCCCCCCCCCNC(=O)c1cccc2ccccc12)c1cccc2ccccc12,GI50,786-0,> 44.8 µM (inactive)
same,GI50,A498,> 47.9 µM (inactive)
same,GI50,A549,> 68.5 µM (inactive)
same,GI50,ACHN,> 64 µM (inactive)
same,GI50,CAKI-1,23.3 µM (inactive)
same,GI50,CCRF-CEM,> 56.2 µM (inactive)
same,GI50,COLO 205,> 100 µM (inactive)
same,GI50,DLD-1,51.4 µM (inactive)
same,GI50,DMS-114,> 100 µM (inactive)
same,GI50,DMS-273,> 100 µM (inactive)
same,GI50,EKVX,> 62.8 µM (inactive)
same,GI50,HCC 2998,> 100 µM (inactive)
same,GI50,HCT-116,> 57.9 µM (inactive)
same,GI50,HCT-15,> 100 µM
same,GI50,HL-60,31.3 µM (inactive)
same,GI50,HOP-18,> 61.1 µM (inactive)
same,GI50,HOP-62,2.98 µM (inactive)
same,GI50,HOP-92,> 52.2 µM (inactive)
same,GI50,HT-29,> 100 µM (inactive)
same,GI50,IGROV-1,> 55.3 µM (inactive)
same,GI50,K562,> 100 µM (inactive)
same,GI50,KM-20L2,> 100 µM (inactive)
same,GI50,KM12,97.3 µM (inactive)
same,GI50,LOX IMVI,> 84.9 µM (inactive)
same,GI50,LXFL 529,> 91.4 µM (inactive)
same,GI50,M14,> 100 µM (inactive)
same,GI50,M19-MEL,> 100 µM (inactive)
same,GI50,MOLT-4,> 100 µM (inactive)
same,GI50,Malme-3M,> 92.3 µM (inactive)
same,GI50,NCI-H226,> 49.9 µM (inactive)
same,GI50,NCI-H23,> 64.1 µM (inactive)
same,GI50,NCI-H460,> 90.8 µM (inactive)
same,GI50,NCI-H522,> 100 µM (inactive)
same,GI50,OVCAR-3,> 45.9 µM (inactive)
same,GI50,OVCAR-4,6.24 µM (inactive)
same,GI50,OVCAR-5,> 100 µM (inactive)
same,GI50,OVCAR-8,31.5 µM (inactive)
same,GI50,RPMI-8226,> 100 µM (inactive)
same,GI50,RXF 393,> 100 µM (inactive)
same,GI50,RXF 631,31.2 µM (inactive)
same,GI50,SF-268,> 100 µM (inactive)
same,GI50,SF-295,> 50.4 µM (inactive)
same,GI50,SF-539,1.66 µM (inactive)
same,GI50,SK-MEL-28,> 100 µM (inactive)
same,GI50,SK-MEL-2,> 58.1 µM (inactive)
same,GI50,SK-MEL-5,> 100 µM (inactive)
same,GI50,SK-OV-3,> 47.5 µM (inactive)
same,GI50,SN12C,> 68.4 µM (inactive)
same,GI50,SNB-19,45.6 µM (inactive)
same,GI50,SNB-75,26.1 µM (inactive)
same,GI50,SNB-78,> 47 µM (inactive)
same,GI50,SR,47 µM (inactive)
same,GI50,SW-620,> 67.5 µM (inactive)
same,GI50,TK-10,> 52.7 µM (inactive)
same,GI50,U-251,> 36.7 µM (inactive)
same,GI50,UACC-257,> 100 µM (inactive)
same,GI50,UACC-62,> 100 µM (inactive)
same,GI50,UO-31,> 42.7 µM (inactive)
same,GI50,XF498,> 47.8 µM (inactive)
COC(=O)c1cccc2cccc(C(=O)Nc3ccc(Cl)cc3)c12,GI50,786-0,> 100 µM (inactive)
same,GI50,A498,36.1 µM (inactive)
same,GI50,A549,> 78.2 µM (inactive)
same,GI50,ACHN,2.92 µM (inactive)
same,GI50,CAKI-1,> 100 µM (inactive)
same,GI50,CCRF-CEM,2.26 µM (inactive)
same,GI50,COLO 205,0.977 µM (active)
same,GI50,DLD-1,> 21.7 µM (inactive)
same,GI50,DMS-114,14.8 µM (inactive)
same,GI50,DMS-273,0.729 µM (active)
same,GI50,EKVX,23.2 µM (inactive)
same,GI50,HCC 2998,6.17 µM (inactive)
same,GI50,HCT-116,> 35.1 µM (inactive)
same,GI50,HCT-15,> 35.2 µM
same,GI50,HL-60,0.706 µM (active)
same,GI50,HOP-18,> 100 µM (inactive)
same,GI50,HOP-92,> 69.7 µM (inactive)
same,GI50,K562,0.142 µM (active)
same,GI50,KM-20L2,> 24.2 µM (inactive)
same,GI50,KM12,> 40.9 µM (inactive)
same,GI50,LOX IMVI,0.664 µM (active)
same,GI50,LXFL 529,0.474 µM (active)
same,GI50,M14,0.951 µM (active)
same,GI50,M19-MEL,4.35 µM (inactive)
same,GI50,MOLT-4,3.1 µM (inactive)
same,GI50,Malme-3M,> 100 µM (inactive)
same,GI50,NCI-H226,> 100 µM (inactive)
same,GI50,NCI-H23,12.7 µM (inactive)
same,GI50,NCI-H460,10.3 µM (inactive)
same,GI50,NCI-H522,13.7 µM (inactive)
same,GI50,OVCAR-3,29.2 µM (inactive)
same,GI50,OVCAR-4,> 100 µM (inactive)
same,GI50,OVCAR-5,> 86.9 µM (inactive)
same,GI50,OVCAR-8,> 79.8 µM (inactive)
same,GI50,RPMI-8226,2.09 µM (inactive)
same,GI50,RXF 393,> 100 µM (inactive)
same,GI50,RXF 631,> 86.1 µM (inactive)
same,GI50,SF-268,> 68.7 µM (inactive)
same,GI50,SF-295,1.72 µM (inactive)
same,GI50,SF-539,21.3 µM (inactive)
same,GI50,SK-MEL-28,> 100 µM (inactive)
same,GI50,SK-MEL-2,1.84 µM (inactive)
same,GI50,SK-MEL-5,0.336 µM (active)
same,GI50,SK-OV-3,> 100 µM (inactive)
same,GI50,SN12C,> 100 µM (inactive)
same,GI50,SNB-19,> 100 µM (inactive)
same,GI50,SNB-75,> 100 µM (inactive)
same,GI50,SNB-78,56.1 µM (inactive)
same,GI50,SR,17.1 µM (inactive)
same,GI50,SW-620,11.4 µM (inactive)
same,GI50,TK-10,> 100 µM (inactive)
same,GI50,U-251,39.7 µM (inactive)
same,GI50,UACC-257,> 100 µM (inactive)
same,GI50,UACC-62,0.153 µM (active)
same,GI50,UO-31,2.94 µM (inactive)
same,GI50,XF498,> 73.3 µM (inactive)
